Measured values from patent publication US20150352108A1, “AMINO-PYRIMIDINE COMPOUNDS AS INHIBITORS OF TBK1 AND/OR IKK EPSILON” (Alzheimer's Institute of America, priority 2009, published 2015).

What was measured:
TBK1 = molecular target: T1, TBK1 (Homo sapiens, UniProt Q9UHD2); test: In-vitro TBK1 kinase assay ([γ33]ATP filter-plate); assay type: biochemical; conditions: text bins; read-out: IC50 for inhibition of the kinase activity of TBK1
T1 construct: His-tag; made in house; host or cells: Sf9 insect cells
T1 sequence (Q9UHD2 1-729): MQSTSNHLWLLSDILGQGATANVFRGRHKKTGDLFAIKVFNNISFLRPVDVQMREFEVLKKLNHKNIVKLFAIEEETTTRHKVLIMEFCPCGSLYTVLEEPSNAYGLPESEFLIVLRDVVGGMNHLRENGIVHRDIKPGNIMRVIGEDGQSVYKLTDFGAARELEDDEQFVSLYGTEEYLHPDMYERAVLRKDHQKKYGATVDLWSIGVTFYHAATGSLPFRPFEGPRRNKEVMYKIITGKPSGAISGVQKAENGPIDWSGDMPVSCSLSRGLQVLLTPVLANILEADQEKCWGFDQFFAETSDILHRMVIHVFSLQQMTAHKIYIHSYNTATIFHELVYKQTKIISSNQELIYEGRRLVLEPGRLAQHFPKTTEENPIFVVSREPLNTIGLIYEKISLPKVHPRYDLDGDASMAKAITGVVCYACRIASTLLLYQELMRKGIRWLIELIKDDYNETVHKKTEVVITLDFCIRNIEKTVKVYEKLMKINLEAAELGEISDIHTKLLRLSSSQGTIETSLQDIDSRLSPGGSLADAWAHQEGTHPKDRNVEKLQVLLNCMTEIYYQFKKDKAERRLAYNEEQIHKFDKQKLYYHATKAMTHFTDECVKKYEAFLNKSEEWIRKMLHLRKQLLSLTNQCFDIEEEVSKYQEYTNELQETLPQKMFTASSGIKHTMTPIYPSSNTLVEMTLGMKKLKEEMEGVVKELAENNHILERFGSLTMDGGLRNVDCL
Description: IKKε enzyme was produced as a His-tag fusion in Sf9 cells and used at a final concentration of […]. TBK1 enzyme was produced as a His-tag fusion in Sf9 cells and used at a final concentration of 0.1 μg/ml. Kinase reactions were carried out in reaction buffer using myelin basic protein (Millipore, Ballerica, Mass.) or casein (Sigma, St. Louis, Mo.) as substrate at an ATP concentration equal to twice the Km,ATP value for each enzyme, corresponding to 32 μM ATP for IKKε and 60 μM ATP for TBK1, in the presence of 0.3 μCi [γ^33]ATP (PerkinElmer, Waltham, Mass.). Final enzyme concentrations were 0.1 or 0.015 μg/ml (IKKε) and 0.1 or 0.02 μg/ml (TBK1), representing “normal” and “sensitized” assay conditions respectively. Test compounds (or DMSO solvent as a control) were added prior to initiation of the reactions. Reactions were terminated after 30-45 minutes by adding 3% phosphoric acid. Terminated reactions were transferred to P-81 cellulose phosphate filterplates (Whatman, Inc., Piscataway, N.J.) and washed with 1% phosphoric acid on a vacuum apparatus. After air drying, scintillant (PerkinElmer, Waltham, Mass.) was added and the plates were read on a PerkinElmer TopCount NXT instrument. Counts were normalized to DMSO controls after background subtraction.

IKKε = molecular target: T2, IKKε (Homo sapiens, UniProt Q14164); test: In-vitro IKKε kinase assay ([γ33]ATP filter-plate); assay type: biochemical; conditions: text bins; read-out: IC50 for inhibition of the kinase activity of IKKε
T2 construct: His-tag; made in house; host or cells: Sf9 insect cells
T2 sequence (Q14164 1-716): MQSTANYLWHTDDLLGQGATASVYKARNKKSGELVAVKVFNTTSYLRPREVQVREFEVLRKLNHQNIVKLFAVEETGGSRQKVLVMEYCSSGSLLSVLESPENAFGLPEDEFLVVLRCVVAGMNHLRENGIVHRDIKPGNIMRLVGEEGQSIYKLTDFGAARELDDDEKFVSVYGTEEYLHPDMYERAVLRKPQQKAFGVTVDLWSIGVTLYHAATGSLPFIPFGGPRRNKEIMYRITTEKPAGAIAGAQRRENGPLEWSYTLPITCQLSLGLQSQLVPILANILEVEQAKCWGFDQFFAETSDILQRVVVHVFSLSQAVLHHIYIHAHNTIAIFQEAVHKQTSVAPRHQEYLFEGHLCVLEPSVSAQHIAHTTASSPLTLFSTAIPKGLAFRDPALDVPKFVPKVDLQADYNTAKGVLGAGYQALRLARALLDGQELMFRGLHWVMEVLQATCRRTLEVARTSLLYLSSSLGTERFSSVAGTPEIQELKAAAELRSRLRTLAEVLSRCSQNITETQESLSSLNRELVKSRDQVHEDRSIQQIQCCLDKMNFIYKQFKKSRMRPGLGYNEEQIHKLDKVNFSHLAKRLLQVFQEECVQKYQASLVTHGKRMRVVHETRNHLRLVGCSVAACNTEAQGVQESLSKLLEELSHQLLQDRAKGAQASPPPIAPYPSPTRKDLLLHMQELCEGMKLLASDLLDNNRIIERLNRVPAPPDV
Outline: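 His-tagged Sf9-expressed kinases at 0.1 or 0.02 μg/ml (TBK1) and 0.1 or 0.015 μg/ml (IKKε) for normal and sensitized formats, with myelin basic protein or casein substrate. ATP was at 2×Km (60 μM TBK1, 32 μM IKKε) plus 0.3 μCi [γ33]ATP. Reactions ran 30-45 min, were captured on P-81 filters, and counts were normalized to DMSO.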

| Structure (SMILES) | IC50 (TBK1) | IC50 (IKKε) |
| --- | --- | --- |
| CC(=O)NCCCOc1ccc(-c2ccnc(Nc3ccc(N4CCOCC4)cc3)n2)cc1C#N [Example 149, N-{3-[2-cyano-4-(2-{[4-(morpholin-4-yl)phenyl]amino}pyrimidin-4-yl)phenoxy]propyl} acetamide] | 10 to 100 nM | 5 to 50 nM |
| N#Cc1cc(-c2nc(Nc3ccc(N4CCOCC4)cc3)nc3[nH]cnc23)ccc1OC1CCOCC1 [compound 553] | 10 to 100 nM | 5 to 50 nM |
| CS(=O)(=O)N1CCC(Oc2ccc(-c3ccnc(Nc4ccc(N5CCOCC5)cc4)n3)cc2C#N)C1 (centres unmarked) [Example 257, 2-{[1-(methylsulfonyl)pyrreolidin-3-yl]oxy}-5-(2-{[4-(morpholin-4-yl)phenyl]amino}pyrimidin-4-yl)benzonitrile] | 10 to 100 nM | 5 to 50 nM |
| COC1CN(Cc2ccc(Nc3nccc(-c4ccc(NC(=O)C5CC5)c(C#N)c4)n3)cc2)C1 [compound 634, N-{2-Cyano-4-[2-({4-[(3-methoxyazetidin-1-yl)methyl]phenyl}amino)pyrimidin-4-yl]phenyl} cyclopropane-carboxamide] | 10 to 100 nM | 5 to 50 nM |
| COc1ccc(Nc2nccc(-c3ccc(NC(C)=O)c(C#N)c3)n2)cc1OC [Example 136, N-(2-Cyano-4-{2-[(3,4-dimethoxyphenyl)amino]pyrimidin-4-yl}phenyl)acetamide] | 10 to 100 nM | 5 to 50 nM |
| CC(C)C(=O)Nc1ccc(-c2ccnc(Nc3ccc(F)c(OCCCN4CCOCC4)c3)n2)cc1C#N [compound 411, N-{2-Cyano-4-[2-({4-fluoro-3-[3-(morpholin-4-yl)propoxy]phenyl}amino)pyrimidin-4-yl]phenyl}-2-methylpropanamide] | 10 to 100 nM | 5 to 50 nM |
| CC(C)C(=O)Nc1ccc(-c2ccnc(Nc3cccc(OCCN4CCOCC4)c3)n2)cc1C#N [compound 432, N-{2-cyano-4-[2-({3-[2-(morpholin-4-yl)ethoxy]phenyl}amino)pyrimidin-4-yl]phenyl}-2-methylpropanamide] | 10 to 100 nM | 5 to 50 nM |
| COc1ccc(Nc2nc(-c3cccc(C#N)c3)c3nc[nH]c3n2)cc1OC [compound 390, 3-{2-[(3,4-Dimethoxyphenyl)amino]-3H-purin-6-yl}benzonitrile] | 100 to 500 nM | 50 to 500 nM |
| CCN(CC)CCN(CC)C(=O)Cc1cccc(Nc2nccc(-c3ccc(OC4CCOCC4)c(C#N)c3)n2)c1 [compound 409, 2-[3-({4-[3-Cyano-4-(tetrahydro-2H-pyran-4-yloxy)phenyl]pyrimidin-2-yl}amino)phenyl]-N-[2-(diethylamino)ethyl]-N-ethylacetamide] | < 10 nM | 5 to 50 nM |
| COc1ccc(-c2ccnc(Nc3ccc(S(=O)(=O)NCCO)c(OC)c3)n2)cc1C#N [Example 281, 4-{[4-(3-Cyano-4-methoxyphenyl)pyrimidin-2-yl]amino}-N-(2-hydroxyethyl)-2-methoxybenzene-sulfonamide] | 10 to 100 nM | 5 to 50 nM |

Now from value to compound:

| IC50 (TBK1) | IC50 (IKKε) | Structure (SMILES) |
| --- | --- | --- |
| 10 to 100 nM | 5 to 50 nM | N#Cc1cc(-c2ccnc(Nc3ccc(N4CCOCC4)cc3)n2)ccc1NC(=O)CN [compound 568, N-[2-Cyano-4-(2-{[4-(morpholin-4-yl)phenyl]amino}pyrimidin-4-yl)phenyl] glycinamide] |
| < 10 nM | 5 to 50 nM | CN(C)C(=O)CCNc1ccc(Nc2nccc(-c3ccc(OC4CCOCC4)c(C#N)c3)n2)cc1 [Example 209, N~3~-[4-({4-[3-cyano-4-(tetrahydro-2H-pyran-4-yloxy)phenyl]pyrimidin-2-yl}amino)phenyl]-N,N-dimethyl-beta-alaninamide] |
| < 10 nM | < 5 nM | COc1cc(Nc2nccc(-c3ccc(OC4CCOCC4)c(C#N)c3)n2)ccc1OCCOCCNS(=O)(=O)N1CCOCC1 [Example 29, N-(2-{2-[4-({4-[3-cyano-4-(tetrahydro-2H-pyran-4-yloxy)phenyl]pyrimidin-2-yl}amino)-2-methoxyphenoxy]ethoxy}ethyl) morpholine-4-sulfonamide] |
| < 10 nM | < 5 nM | N#Cc1cc(-c2ccnc(Nc3ccc(CS(=O)(=O)N4CCCC4)cc3)n2)ccc1OC1CCOCC1 [compound 403, 5-[2-({4-[(Pyrrolidin-1-ylsulfonyl)methyl]phenyl}amino)pyrimidin-4-yl]-2-(tetrahydro-2H-pyran-4-yloxy)benzonitrile] |
| < 10 nM | < 5 nM | N#Cc1cc(-c2ccnc(Nc3ccc(N4CCOCC4)cc3)n2)ccc1NC(=O)C1C[C@@H]1F (stereo partly drawn) [Example 216, (2S)-N-[2-cyano-4-(2-{[4-(morpholin-4-yl)phenyl]amino}pyrimidin-4-yl)phenyl]-2-fluorocyclopropane-carboxamide] |
| < 10 nM | < 5 nM | COC(=O)c1ccc(Nc2nccc(-c3ccc(OC4CCOCC4)c(C#N)c3)n2)cc1OC [Example 235, methyl 4-({4-[3-cyano-4-(tetrahydro-2H-pyran-4-yloxy)phenyl]pyrimidin-2-yl}amino)-2-methoxybenzoate] |
| < 10 nM | 5 to 50 nM | COc1cc(NC(=O)NC[C@@H](C)O)cc(Nc2nccc(-c3ccc(OC)c(C#N)c3)n2)c1 [compound 343, 1-(3-{[4-(3-Cyano-4-methoxyphenyl)pyrimidin-2-yl]amino}-5-methoxyphenyl)-3-[(2R)-2-hydroxypropyl]urea] |
| < 10 nM | 5 to 50 nM | CNc1ccc(-c2ccnc(Nc3ccc(N4CCOCC4)cc3)n2)cc1C#N [Example 218, 2-(Methylamino)-5-(2-{[4-(morpholin-4-yl)phenyl]amino}pyrimidin-4-yl)benzonitrile] |
| < 10 nM | < 5 nM | N#Cc1cc(-c2ccnc(Nc3ccc(N4CCOCC4)cc3)n2)ccc1OC1CCCCC1 [Example 165, 2-(Cyclohexyloxy)-5-(2-{[4-(morpholin-4-yl)phenyl]amino}pyrimidin-4-yl)benzonitrile] |
| < 10 nM | < 5 nM | COc1cc(Nc2nccc(-c3ccc(OC4CCN(C(C)=O)CC4)c(C#N)c3)n2)cc(OC)c1OC [Example 34, 2-[(1-acetylpiperidin-4-yl)oxy]-5-{2-[(3,4,5-trimethoxyphenyl)amino]pyrimidin-4-yl}benzonitrile] |
| < 10 nM | 5 to 50 nM | N#Cc1cc(-c2ccnc(Nc3ccc(N4CCOCC4)cc3)n2)ccc1OC1CCN(CCO)CC1 [Example 49, 2-{[1-(2-Hydroxyethyl)piperidin-4-yl]oxy}-5-(2-{[4-(morpholin-4-yl)phenyl]amino}pyrimidin-4-yl)benzonitrile] |
| < 10 nM | < 5 nM | N#Cc1cc(-c2ccnc(Nc3ccc(N4CCOCC4)cc3)n2)ccc1O [Example 130, 2-Hydroxy-5-(2-{[4-(morpholin-4-yl)phenyl]amino}pyrimidin-4-yl)benzonitrile] |
